Test results as given in PubChem BioAssay (NCI).
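Grown in 96-well plates, cells were treated for 48 hours with each compound at five concentrations. Insufficient inhibition: endpoint recorded as highest concentration tested. The concentration for 50% growth inhibition is given as GI50. Definition used: TGI = concentration required for complete inhibition of growth.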

Legend:
Test in all cases: NCI tumour cell line growth inhibition, 48 h
UO-31 renal = test system: UO-31 renal
HOP-92 NSCLC = test system: HOP-92 NSCLC
HS 578T breast = test system: HS 578T breast
SF-539 CNS = test system: SF-539 CNS
MDA-MB-231 breast = test system: MDA-MB-231 breast
RXF 393 renal = test system: RXF 393 renal
PC-3 prostate = test system: PC-3 prostate
RPMI-8226 leukemia = test system: RPMI-8226 leukemia
COLO 205 colon = test system: COLO 205 colon
SW-620 colon = test system: SW-620 colon
M14 melanoma = test system: M14 melanoma
NCI-H460 lung = test system: NCI-H460 lung
OVCAR-3 ovarian = test system: OVCAR-3 ovarian
UACC-257 melanoma = test system: UACC-257 melanoma
SK-MEL-28 melanoma = test system: SK-MEL-28 melanoma
HCT-15 colon = test system: HCT-15 colon
SN12C renal = test system: SN12C renal
HOP-62 NSCLC = test system: HOP-62 NSCLC
SF-295 CNS = test system: SF-295 CNS
SK-OV-3 ovarian = test system: SK-OV-3 ovarian
SF-268 CNS = test system: SF-268 CNS
A498 renal = test system: A498 renal
SNB-19 CNS = test system: SNB-19 CNS
ACHN renal = test system: ACHN renal
MCF7 breast = test system: MCF7 breast
LOX IMVI melanoma = test system: LOX IMVI melanoma
NCI-H522 lung = test system: NCI-H522 lung
SNB-75 CNS = test system: SNB-75 CNS
NCI/ADR-RES ovarian = test system: NCI/ADR-RES ovarian
HL-60(TB) leukemia = test system: HL-60(TB) leukemia
IGROV1 ovarian = test system: IGROV1 ovarian
HCC-2998 colon = test system: HCC-2998 colon
SR leukemia = test system: SR leukemia
CAKI-1 renal = test system: CAKI-1 renal
T-47D breast = test system: T-47D breast
786-0 renal = test system: 786-0 renal
OVCAR-8 ovarian = test system: OVCAR-8 ovarian
A549 NSCLC = test system: A549 NSCLC
HT29 colon = test system: HT29 colon
SK-MEL-5 melanoma = test system: SK-MEL-5 melanoma
CCRF-CEM leukemia = test system: CCRF-CEM leukemia
TK-10 renal = test system: TK-10 renal
HCT-116 colon = test system: HCT-116 colon
OVCAR-5 ovarian = test system: OVCAR-5 ovarian
BT-549 breast = test system: BT-549 breast
U251 CNS = test system: U251 CNS
MDA-MB-435 = test system: MDA-MB-435
DU-145 prostate = test system: DU-145 prostate
MOLT-4 leukemia = test system: MOLT-4 leukemia
NCI-H226 lung = test system: NCI-H226 lung
KM12 colon = test system: KM12 colon
K-562 leukemia = test system: K-562 leukemia
MALME-3M melanoma = test system: MALME-3M melanoma
EKVX NSCLC = test system: EKVX NSCLC
SK-MEL-2 melanoma = test system: SK-MEL-2 melanoma
UACC-62 melanoma = test system: UACC-62 melanoma
OVCAR-4 ovarian = test system: OVCAR-4 ovarian

COc1cc(/C=C/C(=O)c2c(C)n([O-])c3ccccc3[n+]2=O)cc(OC)c1OC
GI50 (UO-31 renal): 4.5 µM | TGI (UO-31 renal): 17.5 µM | GI50 (HOP-92 NSCLC): 3.47 µM | TGI (HOP-92 NSCLC): 15.7 µM | GI50 (HS 578T breast): 3.51 µM | TGI (HS 578T breast): 21 µM | GI50 (SF-539 CNS): 11.5 µM | TGI (SF-539 CNS): 23.7 µM | GI50 (MDA-MB-231 breast): 9.57 µM | TGI (MDA-MB-231 breast): 22.4 µM | GI50 (RXF 393 renal): 5.85 µM | TGI (RXF 393 renal): 20.4 µM | GI50 (PC-3 prostate): 4.45 µM | TGI (PC-3 prostate): 19.3 µM | GI50 (RPMI-8226 leukemia): 3.58 µM | TGI (RPMI-8226 leukemia): 22.8 µM | GI50 (COLO 205 colon): 9.08 µM | TGI (COLO 205 colon): 24.9 µM | GI50 (SW-620 colon): 4.99 µM | TGI (SW-620 colon): 17.1 µM | GI50 (M14 melanoma): 5.28 µM | TGI (M14 melanoma): 18.8 µM | GI50 (NCI-H460 lung): 3.63 µM | TGI (NCI-H460 lung): 13.1 µM | GI50 (OVCAR-3 ovarian): 5.17 µM | TGI (OVCAR-3 ovarian): 18.6 µM | GI50 (UACC-257 melanoma): 6.48 µM | TGI (UACC-257 melanoma): 20.5 µM | GI50 (SK-MEL-28 melanoma): 11.2 µM | TGI (SK-MEL-28 melanoma): 28.9 µM | GI50 (HCT-15 colon): 4 µM | TGI (HCT-15 colon): 15.6 µM | GI50 (SN12C renal): 5.82 µM | TGI (SN12C renal): 20.3 µM | GI50 (HOP-62 NSCLC): 12.4 µM | TGI (HOP-62 NSCLC): 24.9 µM | GI50 (SF-295 CNS): 4.34 µM | TGI (SF-295 CNS): 14.8 µM | GI50 (SK-OV-3 ovarian): 11 µM | TGI (SK-OV-3 ovarian): 25.5 µM | GI50 (SF-268 CNS): 5.65 µM | TGI (SF-268 CNS): 25.7 µM | GI50 (A498 renal): 3.97 µM | TGI (A498 renal): 17.8 µM | GI50 (SNB-19 CNS): 10.5 µM | TGI (SNB-19 CNS): 23.3 µM | GI50 (ACHN renal): 10.8 µM | TGI (ACHN renal): 22.7 µM | GI50 (MCF7 breast): 3.18 µM | TGI (MCF7 breast): 13.4 µM | GI50 (LOX IMVI melanoma): 5.25 µM | TGI (LOX IMVI melanoma): 17.4 µM | GI50 (NCI-H522 lung): 8.73 µM | TGI (NCI-H522 lung): 24 µM | GI50 (SNB-75 CNS): 12.5 µM | TGI (SNB-75 CNS): 30.8 µM | GI50 (NCI/ADR-RES ovarian): 4.02 µM | TGI (NCI/ADR-RES ovarian): 20 µM | GI50 (HL-60(TB) leukemia): 5.24 µM | TGI (HL-60(TB) leukemia): > 100 µM | GI50 (IGROV1 ovarian): 3.99 µM | TGI (IGROV1 ovarian): 15.6 µM | GI50 (HCC-2998 colon): 8.77 µM | TGI (HCC-2998 colon): 22.3 µM | GI50 (SR leukemia): 2.75 µM | TGI (SR leukemia): 14.9 µM | GI50 (CAKI-1 renal): 7.61 µM | TGI (CAKI-1 renal): 20.7 µM | GI50 (T-47D breast): 8.71 µM | TGI (T-47D breast): 28.7 µM | GI50 (786-0 renal): 6.94 µM | TGI (786-0 renal): 20.1 µM | GI50 (OVCAR-8 ovarian): 4.43 µM | TGI (OVCAR-8 ovarian): 17.7 µM | GI50 (A549 NSCLC): 8.69 µM | TGI (A549 NSCLC): 21.6 µM | GI50 (HT29 colon): 10.7 µM | TGI (HT29 colon): 22.9 µM | GI50 (SK-MEL-5 melanoma): 3.62 µM | TGI (SK-MEL-5 melanoma): 13.4 µM | GI50 (CCRF-CEM leukemia): 3.66 µM | TGI (CCRF-CEM leukemia): 23.3 µM | GI50 (TK-10 renal): 11.3 µM | TGI (TK-10 renal): 24 µM | GI50 (HCT-116 colon): 2.56 µM | TGI (HCT-116 colon): 13.8 µM | GI50 (OVCAR-5 ovarian): 11.6 µM | TGI (OVCAR-5 ovarian): 24.6 µM | GI50 (BT-549 breast): 3.18 µM | TGI (BT-549 breast): 13.5 µM | GI50 (U251 CNS): 5.14 µM | TGI (U251 CNS): 17.2 µM | GI50 (MDA-MB-435): 5.4 µM | TGI (MDA-MB-435): 22.5 µM | GI50 (DU-145 prostate): 2.17 µM | TGI (DU-145 prostate): 13.5 µM | GI50 (MOLT-4 leukemia): 3.38 µM | TGI (MOLT-4 leukemia): 40.7 µM | GI50 (NCI-H226 lung): 15.2 µM | TGI (NCI-H226 lung): 34 µM | GI50 (KM12 colon): 10.7 µM | TGI (KM12 colon): 24.7 µM | GI50 (K-562 leukemia): 5.88 µM | TGI (K-562 leukemia): > 100 µM | GI50 (MALME-3M melanoma): 11.4 µM | TGI (MALME-3M melanoma): 26.7 µM | GI50 (EKVX NSCLC): 2.43 µM | TGI (EKVX NSCLC): 6.86 µM | GI50 (SK-MEL-2 melanoma): 4.63 µM | TGI (SK-MEL-2 melanoma): 17.2 µM | GI50 (UACC-62 melanoma): 11.3 µM | TGI (UACC-62 melanoma): 23.3 µM | GI50 (OVCAR-4 ovarian): 10.8 µM | TGI (OVCAR-4 ovarian): > 100 µM
